Results on five compounds are retold here after patent publication US5733924A, “DC 107 derivatives and treatment methods” (Kyowa Hakko Kogyo Co., Ltd., priority 1995, dated 1998).

One may read the ILS as the gain in survival time of treated over control animals, in per cent.

Values after ≈ are worked out from the molar mass of the structure shown. Like-named read-outs stand apart in the source and are kept apart here.

Test [1] relates to Enterococcus faecium ATCC 10541. Kind of test: Antibacterial activity, agar dilution method (MIC). It counts as cell-based. The text has this:
(§1) The antibacterial activity as determined by the agar dilution method using a medium prepared by dissolving 3 g of Bacto-Tryptone (a product of Difco Laboratories), 3 g of a meat extract, 1 g of an yeast extract, 1 g of glucose and 16 g of agar in one liter of water (pH 7).
EF: Enterococcus faecium ATCC 10541

The subject of test [2] is Staphylococcus aureus ATCC 6538P. Kind of test: Antibacterial activity, agar dilution method (MIC). Particulars: ATCC6538P. It counts as cell-based.
From the text: as §1
SA: Staphylococcus aureus ATCC 6538P

Test [3] relates to Bacillus subtilis No. 10707. Kind of test: Antibacterial activity, agar dilution method (MIC). Type of test: cell-based.
From the text: as §1
BS: Bacillus subtilis No. 10707
A general note: In agar dilution, organisms are placed on agar that contains the substance at set levels.

Test [4] concerns Klebsiella pneumoniae ATCC 10031. Kind of test: Antibacterial activity, agar dilution method (MIC). It counts as cell-based.
From the text: as §1
KP: Klebsiella pneumoniae ATCC 10031

For the next test, the system named is Escherichia coli ATCC 26. Kind of test: Antibacterial activity, agar dilution method (MIC). It counts as cell-based.
From the text: as §1
EC: Escherichia coli ATCC 26

The subject of another test is P388 Leukemia. Kind of test: Antitumor activity against P388 leukemia in mice (increased life span). Type of test: in vivo, CDF1 mice. Particulars: Mus musculus, P388, ip, 720 h. In outline: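 CDF1 mice (20–25 g) received 1×10^6 P388 cells intraperitoneally, taken from DBA/2 ascites on day 7 after transplantation. Activity expressed as ILS%, the ratio of mean survival days in treated versus untreated control mice.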

A further test concerns various bacteria. Particulars: Japanese Published Unexamined Patent Application No. 112988/89; cited from earlier work.
For test [5] the following is noted: Japanese Published Unexamined Patent Application No. 112988/89; cited from earlier work.
[6] abbreviates: ATCC10541, EF: Enterococcus faecium ATCC 10541, pH 7, read-out: MIC (minimum growth inhibitory concentration).
Setting [7] is: SA: Staphylococcus aureus ATCC 6538P, agar dilution, pH 7, read-out: MIC (minimum growth inhibitory concentration).
Setting [8] is: BS: Bacillus subtilis No. 10707, pH 7, read-out: MIC (minimum growth inhibitory concentration).
Where [9] appears, read: ATCC10031, KP: Klebsiella pneumoniae ATCC 10031, agar dilution, pH 7, read-out: MIC (minimum growth inhibitory concentration).
Setting [10] is: ATCC26, EC: Escherichia coli ATCC 26, pH 7, read-out: MIC (minimum growth inhibitory concentration).

For the compound `C/C1=C\C(OC(=O)CN(C)C(=O)CCNC(=O)OCc2ccccc2)C(=O)/C=C/C=C\c2csc(n2)C(C)NC(=O)CC2(CC1)[S+]([O-])SC(=O)C2(C)O` (centres unmarked) [Compound 117], the MIC was determined as 0.23 µg/mL (≈ 0.292 µM) in test [1] (setting [6]); 0.13 µg/mL (≈ 0.165 µM) in test [2] (setting [7]); 0.13 µg/mL (≈ 0.165 µM) in test [3] (setting [8]); 0.057 µg/mL (≈ 0.0724 µM) in test [4] (setting [9]); 0.46 µg/mL (≈ 0.585 µM) in the test on Escherichia coli ATCC 26 (setting [10]). The compound also gave an ILS at 16 mg/kg with P388 Leukemia (16 mg/kg, single i.p. 24 hours after transplantation, CDF1 mice, 30 days observation) of 73%.

Consider `COC1(OC2C=C(C)CCC3(C(C)(O)C(=O)SCc4oc(=O)oc4C)CC(=O)N(C(C)c4nc(cs4)C=CC=CC2=O)[S+]3[O-])CCOCC1` (centres unmarked) [Compound 122], for which the MIC came out at 1.3 µg/mL (≈ 1.76 µM) in test [1] (setting [6]); 0.65 µg/mL (≈ 0.882 µM) in test [2] (setting [7]); 0.16 µg/mL (≈ 0.217 µM) in test [3] (setting [8]); 2.6 µg/mL (≈ 3.53 µM) in test [4] (setting [9]); 42 µg/mL (≈ 57 µM) in the test on Escherichia coli ATCC 26 (setting [10]). Also, the ILS at 2 mg/kg in the test with P388 Leukemia (2.0 mg/kg, single i.p. 24 hours after transplantation, CDF1 mice, 30 days observation, read-out: ILS (increased life span)) was determined as 52%.

On to `CC1=CC(OC(=O)c2ccccn2)C(=O)C=CC=Cc2csc(n2)C(C)N2C(=O)CC(C(C)(O)C(=O)SCc3oc(=O)oc3C)(CC1)[S+]2[O-]` (centres unmarked) [Compound 143], for which the MIC in test [1] (Enterococcus faecium, ATCC10541, pH 7, read-out: MIC (minimum growth inhibitory concentration), EF: Enterococcus faecium ATCC 10541) was 0.33 µg/mL (≈ 0.453 µM); in test [2] (Staphylococcus aureus, pH 7, read-out: MIC (minimum growth inhibitory concentration)), 0.16 µg/mL (≈ 0.22 µM); in test [3] (Bacillus subtilis, NO.10707, pH 7, read-out: MIC (minimum growth inhibitory concentration), BS: Bacillus subtilis No. 10707) it was 0.16 µg/mL (≈ 0.22 µM); in test [4] (Klebsiella pneumoniae, ATCC10031, pH 7, read-out: MIC (minimum growth inhibitory concentration)), 0.65 µg/mL (≈ 0.893 µM); with Escherichia coli ATCC 26 (Escherichia coli, ATCC26, pH 7, read-out: MIC (minimum growth inhibitory concentration), EC: Escherichia coli ATCC 26), 5.2 µg/mL (≈ 7.14 µM). Moreover, in the test on P388 Leukemia (read-out: ILS (increased life span)), the ILS at 0.5 mg/kg came to 49%.

In the case of `CC1=CC(OC(=O)CNC(=O)CCNC(=O)OC(C)(C)C)C(=O)C=CC=Cc2csc(n2)C(C)N2C(=O)CC(C(C)(O)C(=O)SCc3oc(=O)oc3C)(CC1)[S+]2[O-]` (centres unmarked) [Compound 170], the MIC in test [1] (setting [6]) turned out to be 2.3 µg/mL (≈ 2.7 µM); in test [2] (setting [7]) it was 2.3 µg/mL (≈ 2.7 µM); in test [3] (setting [8]) it was 2.3 µg/mL (≈ 2.7 µM); in test [4] (setting [9]), 2.3 µg/mL (≈ 2.7 µM); in the test on Escherichia coli ATCC 26 (setting [10]), 75 µg/mL (≈ 88.1 µM). Besides, the ILS at 8 mg/kg in the test with P388 Leukemia (8.0 mg/kg, single i.p. 24 hours after transplantation, CDF1 mice, 30 days observation, read-out: ILS (increased life span)) amounted to 70%.

As for `C/C1=C\C(O)C(=O)/C=C/C=C\c2csc(n2)C(C)NC(=O)CC2(CC1)[S+]([O-])SC(=O)C2(C)O` (centres unmarked) [DC107], the antibacterial activity result in the test with various bacteria is recorded as “exhibits an antibacterial activity against various bacteria”. Moreover, the antitumor activity result in test [5] is reported as “also an antitumor activity”.
